From PMC11847541, “Liver fatty acid binding protein FABP1 transfers substrates to cytochrome P450 4A11 for catalysis” (The Journal of Biological Chemistry, 2025)
“And” between values parts separate entries of the source, which are not always exact repeats. Identical values can stand only once. Like-named read-outs stand apart in the source and are kept apart here.

Target: T1, FABP1 (Homo sapiens, UniProt P07148)
T1 construct: GST (N, cleaved yes); made in house; host or cells: Escherichia coli DH5α
T1 sequence (P07148 with tags, fused parts or gaps): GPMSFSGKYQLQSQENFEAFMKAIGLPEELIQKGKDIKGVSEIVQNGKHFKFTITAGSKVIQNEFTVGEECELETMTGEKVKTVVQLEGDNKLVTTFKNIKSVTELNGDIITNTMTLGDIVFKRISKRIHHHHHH
Assay: DAUDA displacement fluorescence titrations of DAUDA–FABP1 with fatty acids, fit in KinTek Explorer
Format: binding
Excerpt: The FABP–DAUDA system was used to screen saturated fatty acids (C12 to C18) for binding to FABP, and the Kd values were estimated in competition with the fluorophore (using its known Kd) with the kinetic modeling software KinTek Explorer. The general model is shown in Fig. 5A, where the substrate is competed against the fluorescent DAUDA–FABP1 complex for binding, yielding a ternary DAUDA–FABP1–substrate complex that is accompanied by an attenuation in fluorescence.
Figure 5 Fluorescence titrations of DAUDA–FABP1 with fatty acids (“forward” titrations).A, model of all binding equilibria accounted for in the DAUDA displacement assays. In the fluorescence assays (λex = 335 nm), DAUDA (D) binds to FABP1 (F) to form a fluorescent (indicated with yellow flash) complex (FD), with which a lipid (S) is then competed against for binding. The binding of S attenuates the fluorescence (denoted with a smaller yellow flash) and forms a ternary complex (FDS). High concentrations of S may completely displace D to form FSS, a spectroscopically silent complex. Using this method, fluorescence titrations were carried out with the fatty acids (B) laurate, (C) myristate, (D) palmitate, (E) 16-hydroxypalmitate, and (F) stearate. Fluorescence at the emission maximum (482 nm) was monitored (as in Fig. 4) and normalized to the starting fluorescence (i.e., the FD complex prior to the addition of S). Each data point corresponds to one independent replicate. DAUDA, 11-dansylaminoundecanoic acid; FABP1, fatty acid binding protein.
For the titrations with lipids, solutions of FABP1 (0.5 μM) and DAUDA (0.25 μM) were prepared such that the fluorescent species was not present in excess ([75]). A baseline was recorded with phosphate buffer, and a starting (basis) spectrum was recorded of the FABP–DAUDA complex (1 ml). The lipid solutions were gradually added to the cuvette with gentle mixing (pipetting up and down ∼7× with a pipette tip), and spectra were recorded (Fig. S12A). Control titrations were also performed the same day with solvent alone (Fig. S12B) as a normalizing factor for the lipid titrations as fluorescence attenuation was also observed to a much lesser degree as a solvent effect (Fig. S12C, D). […] The data were processed such that within the lipid titration and the solvent titration, the F482 values were normalized to the starting value (the initial FABP1–DAUDA complex with nothing added, set to 100%). The relative fluorescence of the lipid titration was then normalized to the relative fluorescence of the solvent titration to adjust for fluorescence attenuation observed in the solvent titration (presumably from altering the fluorophore environment). Thus, the data were processed according to y=(F482/F482(initial))lipid/(F482/F482(initial))solvent , and the resulting values were plotted as a function of lipid concentration (Fig. S12E). The curve was imported into KinTek Explorer ([76]) and was fit to a kinetic model (Fig. S13) to determine the Kd values (Table 1). Within the KinTek software, all fluorescent species required fluorescence scaling factors to convert signal to concentration. Scaling factors for the FABP–DAUDA complex, FABP–DAUDA–lipid complex, and DAUDA alone were 460, 92, and 8, respectively.
Figure S12. Data processing for FABP1 titration with palmitate. Fluorescence spectrum of increasing additions of (A) palmitate (0-2 µM, added in C2H5OH) and (B) C2H5OH to a mixture of DAUDA (0.25 µM) and FABP1 (0.5 µM), performed as described in the Experimental Methods (see “Titrations of FABP1 with lipids, DAUDA”). C, fluorescence values at 482 nm (F482) from the titrations presented in parts A and B are normalized to the starting values (DAUDA-FABP1 complex, no volume added). Data are reported as a function of volume of titrant added to the cuvette (black, C2H5OH alone; red, palmitate in C2H5OH). […]

[1] = lipid binding to DAUDA-bound FABP1 (DAUDA displacement), read-out: Kd, FD + S ↔ FDS
[2] = lipid binding to apo-FABP1, estimated via kinetic modeling, read-out: Kd, F + S ↔ FS
[3] = lipid binding to ternary complex FDS (full displacement of DAUDA), low-affinity site, read-out: Kd, FDS + S ↔ FSS + D

**Q.** With `CCCCCCCCCCCCCCCC(=O)O` [Palmitate (C16), palmitate] as the compound, how does the “affinity difference between the two FABP1 binding sites” value read?
**A.** The value was > 250 fold.

**Q.** What about the “koff of palmitate from FABP1 relative to binding of palmitate (1–10 μM) to P450 4A11” value (faster) of the same compound?
**A.** Its value is 10–100 fold.

**Q.** What about the remaining activity at 0.01 µM (lipid 0.01 µM, FABP1 0.5 µM, DAUDA 0.25 µM, F482 normalized, read-out: % Fluorescence) of the same compound?
**A.** The remaining activity at 0.01 µM was 91%.

**Q.** What about the remaining activity at 0.025 µM (lipid 0.025 µM, FABP1 0.5 µM, DAUDA 0.25 µM, F482 normalized) of the same compound?
**A.** Its remaining activity at 0.025 µM is 85.5%.

**Q.** What about the remaining activity at 0.05 µM (lipid 0.05 µM, FABP1 0.5 µM, DAUDA 0.25 µM, F482 normalized) of the same compound?
**A.** Its remaining activity at 0.05 µM is 84.5%.

**Q.** What about the remaining activity at 0.075 µM (lipid 0.075 µM, FABP1 0.5 µM, DAUDA 0.25 µM, F482 normalized) of the same compound?
**A.** The remaining activity at 0.075 µM was 79.1%.

**Q.** And the remaining activity at 0.1 µM (lipid 0.1 µM, FABP1 0.5 µM, DAUDA 0.25 µM, F482 normalized, read-out: % Fluorescence)?
**A.** The remaining activity at 0.1 µM was 74.5%.

**Q.** And the remaining activity at 0.15 µM (lipid 0.15 µM, FABP1 0.5 µM, DAUDA 0.25 µM, F482 normalized)?
**A.** The remaining activity at 0.15 µM was 67.2%.

**Q.** What about the remaining activity at 0.2 µM (lipid 0.2 µM, FABP1 0.5 µM, DAUDA 0.25 µM, F482 normalized) of the same compound?
**A.** Its remaining activity at 0.2 µM is 60.3%.

**Q.** What about the remaining activity at 0.25 µM (lipid 0.25 µM, FABP1 0.5 µM, DAUDA 0.25 µM, F482 normalized) of the same compound?
**A.** Its remaining activity at 0.25 µM is 55.8%.

**Q.** What about the remaining activity at 0.35 µM (lipid 0.35 µM, FABP1 0.5 µM, DAUDA 0.25 µM, F482 normalized) of the same compound?
**A.** The remaining activity at 0.35 µM was 42.4%.

**Q.** And the remaining activity at 0.45 µM (lipid 0.45 µM, FABP1 0.5 µM, DAUDA 0.25 µM, F482 normalized)?
**A.** The remaining activity at 0.45 µM was 36.3%.

**Q.** And the remaining activity at 0.6 µM (lipid 0.6 µM, FABP1 0.5 µM, DAUDA 0.25 µM, F482 normalized, read-out: % Fluorescence)?
**A.** The remaining activity at 0.6 µM was 30.3%.

**Q.** And the remaining activity at 0.9 µM (lipid 0.9 µM, FABP1 0.5 µM, DAUDA 0.25 µM, F482 normalized)?
**A.** The remaining activity at 0.9 µM was 21.6%.

**Q.** And the remaining activity at 1.15 µM (lipid 1.15 µM, FABP1 0.5 µM, DAUDA 0.25 µM, F482 normalized)?
**A.** The remaining activity at 1.15 µM was 20.5%.

**Q.** And the remaining activity at 1.4 µM (lipid 1.4 µM, FABP1 0.5 µM, DAUDA 0.25 µM, F482 normalized)?
**A.** Its remaining activity at 1.4 µM is 19.4%.

**Q.** And the remaining activity at 1.9 µM (lipid 1.9 µM, FABP1 0.5 µM, DAUDA 0.25 µM, F482 normalized)?
**A.** Its remaining activity at 1.9 µM is 20.4%.

**Q.** What about the koff (lipid (S) binding to apo-FABP1 (F), kinetic modeling, on-rate 9.0 × 10^7 M^−1 s^−1, read-out: koff, F + S ↔ FS) of the same compound?
**A.** The koff was 4.1 s⁻¹.

**Q.** And the Kd [1]?
**A.** Its Kd is 0.01 µM.

**Q.** What about the koff (lipid binding to DAUDA-bound FABP1 (FD), on-rate 2.3 × 10^7 M^−1 s^−1, read-out: koff, FD + S ↔ FDS) of the same compound?
**A.** Its koff is 0.24 s⁻¹.

**Q.** What about the Kd [2] of the same compound?
**A.** Its Kd is 0.046 µM.

**Q.** And the Kd [3]?
**A.** Its Kd is 10 µM.

**Q.** What about the koff (lipid binding to ternary complex FDS (full displacement of DAUDA), read-out: koff, FDS + S ↔ FSS + D) of the same compound?
**A.** Its koff is 240 s⁻¹.

**Q.** What about the “tighter binding of palmitate to FABP1 than to P450 4A11” value (ratio of Kd values) of the same compound?
**A.** Its value is > 100 fold and 100 fold.

**Q.** With `O=C(O)CCCCCCCCCCCCCCCO` [16-OH Palmitate (C16), 16-hydroxypalmitate] as the compound, how does the “koff, F + S ↔ FS” value (lipid (S) binding to apo-FABP1 (F), kinetic modeling, on-rate 9.0 × 10^7 M^−1 s^−1) read?
**A.** Its value is 47 s⁻¹.

**Q.** And the Kd [1]?
**A.** The Kd was 15 µM.

**Q.** And the “koff, FD + S ↔ FDS” value (lipid binding to DAUDA-bound FABP1 (FD), on-rate 2.3 × 10^7 M^−1 s^−1)?
**A.** Its value is 350 s⁻¹.

**Q.** And the Kd [2]?
**A.** Its Kd is 0.52 µM.

**Q.** And the “koff, FDS + S ↔ FSS + D” value (lipid binding to ternary complex FDS (full displacement of DAUDA))?
**A.** Its value is 1500 s⁻¹.

**Q.** What about the Kd [3] of the same compound?
**A.** The Kd was 63 µM.
